Legend:
Assay in all cases: relative viability (nuclei count vs DMSO), 5 days (fraction); higher = more cells survive
[1] = compound: Cc1ccc2nc(NCCN)c3ncc(C)n3c2c1 + CC(=O)Nc1cccc(-n2c(=O)n(C3CC3)c(=O)c3c(Nc4ccc(I)cc4F)n(C)c(=O)c(C)c32)c1 [Trametinib] (partner 0.02 µM)
Method in brief: (§1)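 For relative viability, nuclei counts in treated wells were divided by those in vehicle wells. Lung cancer cell lines had been pin-tool dosed in 1536-well plates the day after seeding and cultured for 5 days, then fixed and stained in one step (final 0.05% Triton X-100, 1% formaldehyde, 1 ug/ml Hoechst) and imaged at 4×. Doses were one drug alone or a fixed anchor-drug dose plus five library-drug doses (not always all listed) in √10 steps, and values are duplicate-plate medians.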

[2] = compound: Cc1ccc2nc(NCCN)c3ncc(C)n3c2c1 + C[C@]1(O)C[C@@H](c2nc(-c3ccc4ccc(-c5ccccc5)nc4c3)c3c(N)nccn32)C1 [Linsitinib] (partner 1 µM)
Method in brief: as §1

[3] = compound: Cc1ccc2nc(NCCN)c3ncc(C)n3c2c1 + CC(=O)c1c(C)c2cnc(Nc3ccc(N4CCNCC4)cn3)nc2n(C2CCCC2)c1=O [Palbociclib] (partner 0.5 µM)
Method in brief: as §1

[4] = compound: Cc1ccc2nc(NCCN)c3ncc(C)n3c2c1 + CC1(C)CCC(c2ccc(Cl)cc2)=C(CN2CCN(c3ccc(C(=O)NS(=O)(=O)c4ccc(N[C@H](CCN5CCOCC5)CSc5ccccc5)c(S(=O)(=O)C(F)(F)F)c4)cc3)CC2)C1 [Navitoclax] (partner 0.5 µM)
Method in brief: as §1

Cell Line | relative viability ([1]; first compound 0.04 µM) | relative viability ([1]; first compound 0.1265 µM) | relative viability ([1]; first compound 0.4 µM) | relative viability ([1]; first compound 1.265 µM) | relative viability ([1]; first compound 4 µM) | relative viability ([2]; first compound 0.04 µM) | relative viability ([2]; first compound 0.1265 µM) | relative viability ([2]; first compound 0.4 µM) | relative viability ([2]; first compound 1.265 µM) | relative viability ([2]; first compound 4 µM) | relative viability ([3]; first compound 0.04 µM) | relative viability ([3]; first compound 0.1265 µM) | relative viability ([3]; first compound 0.4 µM) | relative viability ([3]; first compound 1.265 µM) | relative viability ([3]; first compound 4 µM) | relative viability ([4]; first compound 0.04 µM) | relative viability ([4]; first compound 0.1265 µM) | relative viability ([4]; first compound 0.4 µM) | relative viability ([4]; first compound 1.265 µM) | relative viability ([4]; first compound 4 µM)
LU99A | 0.501 | 0.604 | 0.541 | 0.618 | 0.577 | 0.568 | 0.524 | 0.526 | 0.561 | 0.522 | 0.468 | 0.447 | 0.434 | 0.456 | 0.41 | 0.784 | 0.822 | 0.761 | 0.883 | 0.782
NCI-H647 | 0.542 | 0.378 | 0.437 | 0.419 | 0.341 | 1.34 | 1.15 | 1.22 | 1.08 | 1.18 | 0.41 | 0.412 | 0.405 | 0.413 | 0.296 | 1.08 | 1.06 | 1.17 | 0.804 | 0.908
HCC-78 | 0.703 | 0.672 | 0.699 | 0.527 | 0.536 | 0.539 | 0.537 | 0.496 | 0.491 | 0.448 | 0.499 | 0.475 | 0.484 | 0.437 | 0.369 | 0.919 | 0.8 | 0.778 | 0.757 | 0.689
NCI-H1755 | 0.757 | 0.809 | 0.769 | 0.8 | 0.776 | 0.989 | 1 | 0.934 | 1.07 | 0.946 | 0.454 | 0.482 | 0.486 | 0.455 | 0.385 | 1.04 | 0.971 | 0.997 | 1.02 | 0.98
NCI-H3122 | 0.21 | 0.26 | 0.248 | 0.259 | 0.238 | 1 | 1.03 | 0.999 | 0.982 | 1.04 | 0.167 | 0.193 | 0.163 | 0.199 | 0.213 | 1.03 | 1.03 | 1.06 | 1 | 1.1
PC-14 | 0.779 | 0.706 | 0.742 | 0.647 | 0.327 | 0.962 | 0.957 | 0.947 | 0.964 | 0.9 | 0.447 | 0.488 | 0.475 | 0.386 | 0.244 | 0.985 | 1.02 | 0.993 | 0.908 | 0.856
SK-MES-1 | 0.545 | 0.556 | 0.539 | 0.594 | 0.573 | 1.08 | 0.993 | 1.09 | 1.05 | 1.03 | 0.341 | 0.298 | 0.351 | 0.341 | 0.326 | 1.26 | 1.33 | 1.14 | 1.13 | 1.17
NCI-H2347 | 0.269 | 0.289 | 0.264 | 0.29 | 0.3 | 0.963 | 1 | 0.944 | 0.829 | 0.893 | 0.431 | 0.451 | 0.417 | 0.433 | 0.455 | 0.871 | 0.723 | 0.715 | 0.787 | 0.677

Reference: the supplement of paper PMC10307832
